In patent US12570638B2, “Fused imidazole derivatives as AHR antagonists” (Sail Biomedicines, Inc., priority 2020, dated 2026) one finds CLint scaled, Papp A→B and Papp B→A data, which are given here for two molecules.

Structures are written as SMILES. A value given as a limit tells only on which side of the number the result lay.

Data set [1] is described as follows: Liver Microsome Stability Assay, human. The data set is classed as in vitro ADME. The note with it: human liver microsomes, with NADPH, 1 μM compound, read-out: Human liver microsome clearance. On the procedure:
The master solution was prepared according to Table 6.
Two separate experiments were performed as follows.
With Cofactors (NADPH): 25 μL of 10 mM NADPH was added to the incubations. The final concentrations of microsomes and NADPH were 0.5 mg/mL and 1 mM, respectively. The final concentration of microsomes was 0.5 mg/mL. The mixture was pre-warmed at 37° C. for 10 minutes. The reaction was started with the addition of 2.5 μL of 100 μM control compound or test compound solutions. Verapamil was used as positive control in this study. The final concentration of test compound or control compound was 1 μM. The incubation solution was incubated in water batch at 37° C. Aliquots of 25 μL were taken from the reaction solution at 0.5, 5, 15, 30 and 60 minutes. The reaction was stopped by the addition of 5 volumes of cold acetonitrile with IS (200 nM caffeine and 100 nM tolbutamide). Samples were centrifuged at 3, 220 g for 40 minutes. Aliquot of 100 μL of the supernatant was mixed with 100 μL of ultra-pure H2O and then used for LC-MS/MS analysis.
Data Analysis: All calculations were carried out using Microsoft Excel. Peak areas were determined from extracted ion chromatograms. The slope value, k, was determined by linear regression of the natural logarithm of the remaining percentage of the parent drug vs. incubation time curve.
The in vitro half-life (in vitro t1/2) was determined from the slope value: in vitro t1/2=−([…]/k)
Conversion of the in vitro t1/2 (min) into the in vitro intrinsic clearance (in vitro CLint, in μL/min/mg protein) was done using the following equation (mean of duplicate determinations):
The calculations of Scaled-up CLint (mL/min/kg), Predicted CLH (mL/min/kg) and EH were done using the following equation: Scaled-up CLint=(0.693/t1/2)×(1/(microsomal protein concentration(0.5 mg/mL)))×Scaling Factors; Predicted CLH=(QH×Scaled-up CLint×fub)/(QH+Scaled-up CLint×fub); EH=Predicted CLH/QH • where QH is the hepatic blood flow (mL/min/kg) (Table 7), • fub is the fraction of unbound drug in plasma which is assumed to be 1. […]
(In general: Microsomes from liver hold many membrane-bound enzymes, among them those of drug oxidation.)

A short description of data set [2]: Caco-2 Permeability Assay. Format: in vitro ADME. The note with it: human; for Papp A→B at 2 h, 1 μM: Caco-2, pH 7.4, apical to basolateral, read-out: Caco2 Papp (AB); for Papp B→A at 2 h, 1 μM: Caco-2, pH 7.4, basolateral to apical, read-out: Caco2 Papp (BA). The protocol: Preparation of Caco-2 Cells: 50 μL and 25 mL of cell culture medium were added to each well of the Transwell insert and reservoir, respectively. The HTS transwell plates were incubated at 37° C., 5% CO2 for 1 hour before cell seeding. Caco-2 cells were diluted to 6.86×10^5 cells/mL with culture medium and 50 μL of cell suspension were dispensed into the filter well of the 96-well HTS Transwell plate. Cells were cultivated for 14-18 days in a cell culture incubator at 37° C., 5% CO2, 95% relative humidity. Cell culture medium was replaced every other day, beginning no later than 24 hours after initial plating.
Assessment of Cell Monolayer Integrity: Medium was removed from the reservoir and each Transwell insert and replaced with prewarmed fresh culture medium. Transepithelial electrical resistance (TEER) across the monolayer was measured using Millicell Epithelial Volt-Ohm measuring system (Millipore, USA). The Plate was returned to the incubator once the measurement was done. The TEER value was calculated according to the following equation: TEER measurement (ohms)×Area of membrane (cm^2)=TEER value (ohm·cm^2)
TEER value should be greater than 230 ohm·cm^2, which indicates the well-qualified Caco-2 monolayer.
Preparation of Solutions: 2 mM stock solutions in DMSO of control compounds were prepared and diluted with HBSS (10 mM HEPES, pH 7.4) to get 10 μM working solution. 0.2 mM stock solutions of test compounds in DMSO were prepared and diluted with HBSS (10 mM HEPES, pH 7.4 with 0.5% BSA) to get 1 μM working solution. Metoprolol, erythromycin and cimetidine were used as control compounds.
Performing the Drug Transport Assay: The Caco-2 plate was removed from the incubator. The monolayer was washed twice with pre-warmed HBSS (10 mM HEPES, pH 7.4). The plate was incubated at 37° C. for 30 minutes. To determine the rate of drug transport in the apical to basolateral direction, 125 μL of the working solution was added to the Transwell insert (apical compartment). A 50 μL sample was transferred immediately from the apical compartment to 200 μL of acetonitrile containing IS (100 nM alprazolam, 200 nM Caffeine and 100 nM tolbutamide) in a new 96-well plate as the initial donor sample (A-B) and it was vortexed at 1000 rpm for 10 minutes. The wells in the receiver plate (basolateral compartment) were filled with 235 μL of transport buffer. To determine the rate of drug transport in the basolateral to apical direction, 285 μL of the working solution were added to the receiver plate wells (basolateral compartment). […]
Data analysis: All calculations were carried out using Microsoft Excel. Peak areas were determined from extracted ion chromatograms. […]
(In general: Caco-2 cells form a polarised layer with tight junctions and transporters.)

As for `Cn1nccc1C(=O)Nc1ccc2nc(-c3ccccc3C(F)(F)F)[nH]c2c1` [A, 1-methyl-N-(2-(2-(trifluoromethyl)phenyl)-1H-benzo[d]imidazol-6-yl)-1H-pyrazole-5-carboxamide], the CLint scaled at 1 μM in data set [1] is less than 10 mL/min/kg. For the same molecule, in data set [2], the Papp A→B at 2 h, 1 μM was greater than 10 ×10⁻⁶ cm/s and the Papp B→A at 2 h, 1 μM was greater than 10 ×10⁻⁶ cm/s.
In the case of `Cn1ncnc1C(=O)Nc1ccc2nc(-c3ccccc3C(F)(F)F)[nH]c2c1` [Compound H, 1-methyl-N-(2-(2-(trifluoromethyl)phenyl)-1H-benzo[d]imidazol-6-yl)-1H-1,2,4-triazole-5-carboxamide], the CLint scaled at 1 μM in data set [1] is less than 10 mL/min/kg. In data set [2], the Papp A→B at 2 h, 1 μM is greater than 10 ×10⁻⁶ cm/s and the Papp B→A at 2 h, 1 μM is greater than 10 ×10⁻⁶ cm/s.
